The source of these data is PubChem BioAssay AID1996.

Converted amounts (≈) assume the structure as drawn.

The conditions of this series: buffer; pH 7.4; 200.0 µM.
The kinetic solubility is solubility judged after dilution from a stock solution rather than from solid. Turning to `COc1cc(/C=C(\C#N)C(=O)NCC2CCCO2)ccc1OCCC(C)C` (configuration not stated), the solubility (kinetic) came to 7.9 µg/mL (≈ 21.2 µM).

`CN1CCN(CC(O)COc2ccccc2)CC1` (configuration not stated) showed a kinetic solubility of 33.4 µg/mL (≈ 133 µM).

Turning to `c1ccc2c(c1)OCCc1c-2[nH]c2ccccc12`, the solubility (kinetic) came to 3 µg/mL (≈ 12.8 µM). The result for `N#CCN1C(=O)NC2(CCCc3sccc32)C1=O` (configuration not stated) reads over 39.2 µg/mL; that for `CCOC(=O)N1CCN(C(=O)C(C)c2ccc([N+](=O)[O-])cc2)CC1` (configuration not stated), over 50.3 µg/mL; that for `CC1CC(C)(C)NC(=S)N1CCCC(=O)NCc1ccccc1` (configuration not stated), over 50 µg/mL. As for `S=C(NCCc1ccccc1)N1CCCC1`, the kinetic solubility is over 35.2 µg/mL. Molecule `O=C(/C=C/c1cccs1)N1CCCC1` registered a solubility (kinetic) of over 31.1 µg/mL. `CCCn1c(CCl)nc2cc(S(=O)(=O)N3CCOCC3)ccc21` showed a solubility (kinetic) of 0.6 µg/mL (≈ 1.68 µM). As to `Cc1c(CN2CCN(CC(C)(C)C)C(CCO)C2)[nH]c2ccccc12` (configuration not stated), the kinetic solubility worked out at 45.1 µg/mL (≈ 131 µM).

Consider `CSc1cccc(NC(=O)CC(C)n2ccnc2)c1` (configuration not stated), for which the solubility (kinetic) was over 41.3 µg/mL. The same measure for `COC(=O)C1C(O)=C(C=Nc2ccccc2)C(=O)CC1(C)C` (configuration not stated): over 45.2 µg/mL; for `O=C(O)c1cc(NC(=O)c2ccco2)cc(NC(=O)c2ccco2)c1`: 44.4 µg/mL (≈ 130 µM).

`COc1cccc(CN(C)C(=O)CCN=C2NS(=O)(=O)c3ccccc32)c1` yielded a kinetic solubility of over 58.1 µg/mL.

`CCCCN(C(=O)c1c(-c2ccccc2)noc1C)c1c(N)n(CCC)c(=O)[nH]c1=O` returned a kinetic solubility of over 63.8 µg/mL. Turning to `CC(=O)NCCc1nc2ccccc2n1CCOc1ccc(C)cc1`, the solubility (kinetic) is over 50.6 µg/mL. `COc1ccccc1OC(=O)Nc1ccc(Cl)cc1` displayed a solubility (kinetic) of 17.8 µg/mL (≈ 64.1 µM).

`COc1ccc(C(=O)c2c[nH]c(C(=O)N=CN(C)C)c2)cc1`: the solubility (kinetic) was 42 µg/mL (≈ 140 µM).

The molecule `O=C(CCCOc1ccccc1)NC(=S)Nc1ccccc1` displayed a solubility (kinetic) of 1.8 µg/mL (≈ 5.73 µM).

In turn, `CC(C)(C)c1ccc(NC(=O)c2ccsc2)cc1` yielded a kinetic solubility of 1.1 µg/mL (≈ 4.24 µM). Molecule `CCc1ccccc1NC(=O)CCN1C(=O)C2CC=CCC2C1=O` (configuration not stated) showed a solubility (kinetic) of over 49 µg/mL. Consider `COc1ccc(-c2ccc(CCC(=O)O)n2Cc2ccco2)cc1`, for which the kinetic solubility was determined as 48.1 µg/mL (≈ 148 µM). The same measure for `CN1C2CCC1CC(NC(=O)CSc1ccc(Cl)cc1)C2` (configuration not stated): over 48.7 µg/mL; for `C=CCC1(/C=N/O)CCOC(C)(C)C1` (configuration not stated): over 29.6 µg/mL. In turn, `COc1ccc(C(=O)COC(=O)c2ccc(N(C)C)cc2)cc1` registered a kinetic solubility of under 0.7 µg/mL. The molecule `COc1ccc(-c2c3c(=O)n(C)c(=O)n(C)c3cn2-c2ccc(O)cc2)cc1` yielded a kinetic solubility of 20.4 µg/mL (≈ 54.1 µM). On to `COc1cc(/C=C/C(=O)NCC2CCCCC2)cc(OC)c1OC`, for which the solubility (kinetic) was under 0.7 µg/mL.

With `Cc1ccc(C)c(N2CCN(c3ccc([N+](=O)[O-])cn3)CC2)c1`, the kinetic solubility is under 0.2 µg/mL. On to `O=S(=O)(CCN1CCCCC1)Oc1ccc(Cl)cc1Cl`, for which the kinetic solubility came to 50.5 µg/mL (≈ 149 µM).

`Cn1nnc(NC(=O)c2ccc(Br)o2)n1`: the kinetic solubility is over 40.8 µg/mL. As to `NC(N)=NC(N)=Nc1cccc2ccccc12`, the solubility (kinetic) was over 34.1 µg/mL.

`Cc1cccc(NC(=O)CCN2CC(C)CC(C)C2)c1.Cl` (configuration not stated) came in with a solubility (kinetic) of over 46.6 µg/mL. `Cc1c(C(=O)NNC(=O)c2cccnc2)cccc1[N+](=O)[O-]` came in with a solubility (kinetic) of over 45 µg/mL. `O=C(c1nc(SCc2ccc([N+](=O)[O-])cc2)n2ccccc12)C(F)(F)F` had a solubility (kinetic) of under 0.3 µg/mL. The result for `CC(=O)c1c(C(=O)O)c2ccccc2[nH]c1=O` reads 34 µg/mL (≈ 147 µM). As for `O=C(NC1CCCCC1)c1ccc2c(c1)OCO2`, the kinetic solubility is over 37.1 µg/mL. Molecule `COc1ccc(NC(=S)N2CCCCC2c2cccnc2)cc1` (configuration not stated) yielded a solubility (kinetic) of 49 µg/mL (≈ 150 µM). The same measure for `O=S(=O)(NCc1ccccn1)c1ccc2ccccc2c1`: 36.9 µg/mL (≈ 124 µM); for `CSc1nc2ccc(NC(=O)c3cccs3)cc2s1`: 2.7 µg/mL (≈ 8.81 µM); for `COc1ccc(NC(=O)N[C@@H](CCSC)C(=O)O)cc1OC`: over 49.3 µg/mL.

Turning to `O=C(c1ccc2c(c1)OCO2)C1CCCN(CC2CCCCC2)C1` (configuration not stated), the solubility (kinetic) is over 49.4 µg/mL. Regarding `Cc1ccc(-c2ccc(S(=O)(=O)N3CC(C)OC(C)C3)cc2)cc1` (configuration not stated), the solubility (kinetic) was under 0.7 µg/mL.

For the molecule `O=C(NCCCN1CCCC1=O)c1cc(-c2ccc(F)cc2)nc2ccccc12`, the solubility (kinetic) is over 58.7 µg/mL. `NC(=O)c1coc(-c2ccccc2)n1` displayed a solubility (kinetic) of over 28.2 µg/mL.

In turn, `CC(=O)Nc1ccc(NC(=O)CCSCCc2ccccn2)cc1` registered a kinetic solubility of over 51.5 µg/mL. Consider `CCOc1ccc(CCNC(=O)Nc2ccccc2)cc1OCC`, for which the kinetic solubility stood at 5.9 µg/mL (≈ 18 µM). With `Cc1ccc(N2C(=O)c3ccccc3C2=O)cc1`, the kinetic solubility was determined as 2.7 µg/mL (≈ 11.4 µM). The result for `CC(NC(=O)c1ccccc1C(=O)O)c1ccc(-n2ccnc2)cc1` (configuration not stated) reads over 50.3 µg/mL. `CCOc1ccccc1-c1noc(CCC(=O)NC2CCCCC2)n1`: the solubility (kinetic) is 46.2 µg/mL (≈ 135 µM). `CC1CCCCN1C(=O)CNCC1CCCO1.O=C(O)C(=O)O` (configuration not stated) yielded a solubility (kinetic) of over 49.6 µg/mL.

In the case of `CC(C)CNS(=O)(=O)c1cc2c3c(c1)CCC(=O)N3CCC2`, the solubility (kinetic) was over 48.4 µg/mL. For the molecule `CCOc1ccc(N=Cc2c(O)n(-c3ccc(C)c(C)c3)c(=O)[nH]c2=O)cc1`, the kinetic solubility turned out to be 2.9 µg/mL (≈ 7.64 µM).
